As a reminder, the IC50 is the point on the concentration scale where inhibition reaches its midpoint.

We go through 37 compounds from US7553864B2, “Compounds for the treatment of inflammatory disorders and microbial diseases” (Schering Corporation, priority 2005, dated 2009).

For the assay, the target named is T1, ADMP (ADAMTS-4-5) (Homo sapiens, UniProt O75173).
T1 construct: purchased Calbiochem PF113
T1 sequence (O75173 213-837): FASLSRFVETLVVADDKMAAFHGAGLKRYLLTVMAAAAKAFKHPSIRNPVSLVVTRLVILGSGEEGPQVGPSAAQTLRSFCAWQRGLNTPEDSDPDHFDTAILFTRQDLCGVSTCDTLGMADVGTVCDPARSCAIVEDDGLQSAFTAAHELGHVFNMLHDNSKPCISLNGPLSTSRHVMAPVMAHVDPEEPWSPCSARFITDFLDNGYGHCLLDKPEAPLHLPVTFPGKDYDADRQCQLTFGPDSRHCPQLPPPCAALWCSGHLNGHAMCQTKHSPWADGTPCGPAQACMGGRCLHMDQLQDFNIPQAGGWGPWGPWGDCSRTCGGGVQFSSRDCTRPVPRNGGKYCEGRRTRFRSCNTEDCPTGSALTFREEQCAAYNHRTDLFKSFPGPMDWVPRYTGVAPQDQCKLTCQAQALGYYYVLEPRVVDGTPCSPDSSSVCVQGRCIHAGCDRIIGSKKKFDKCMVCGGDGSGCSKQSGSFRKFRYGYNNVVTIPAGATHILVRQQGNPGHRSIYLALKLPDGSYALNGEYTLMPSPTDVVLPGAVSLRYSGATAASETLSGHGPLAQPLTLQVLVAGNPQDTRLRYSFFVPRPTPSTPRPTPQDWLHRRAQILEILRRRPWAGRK
As to the kind of experiment: ADMP activity assay (procedures of WO00/05256). It counts as biochemical. From the text:
The procedures of International Patent Publication WO00/05256 (published Feb. 3, 2000) were followed for detection of ADMP Activity and for measuring the IC50 of the compounds of the present invention. This was indicative of activity against a desintgrin and metallopropeinase thrombo spondin 4 and 5 (ADAMTS-4-5).
The enzyme was purchased commercially from Calbiochem (Cat# PF113) and the peptide substrate described in the patent was custom-ordered from AnaSpec.

Setting [1] is: read-out: IC50 (ADMP inhibition).
[2] abbreviates: read-out: IC50 rating (ADMP inhibitory activity).

Like-named read-outs stand apart in the source and are kept apart here.

Consider `C[C@H](NC(=O)[C@H](O)[C@@H](O)C(=O)N1CCC(Oc2ccccc2)CC1)c1ccc(Br)cc1` [Compound 149], for which the IC50 under setting [1] turned out to be 0.09 µM and the 50% inhibitory concentration (IC50) under setting [2] was below 0.25 µM. As for `C[C@H](NC(=O)[C@H](O)[C@@H](O)C(=O)N1CCN(c2ccc(O)cc2)CC1)c1ccc(Br)cc1` [Compound 150], under setting [2], the IC50 was in the range of 1 to 5 µM. Regarding `C[C@H](NC(=O)[C@H](O)[C@@H](O)C(=O)N1CCC(c2nc3ccccc3s2)CC1)c1ccc(Br)cc1` [Compound 151], the IC50 under setting [2] is below 0.25 µM. Still for that read-out and setting: with `C[C@H](NC(=O)[C@H](O)[C@@H](O)C(=O)N1CCC2(CC1)C(=O)Nc1ccccc12)c1ccc(Br)cc1` [Compound 152] the figure was 1 to 5 µM. As to `C[C@H](NC(=O)[C@H](O)[C@@H](O)C(=O)N1CCC2(CCCNC2)CC1)c1ccc(Br)cc1` [Compound 158], under setting [2], the concentration for half-maximal inhibition (IC50) is above 5 µM.

Turning to `C[C@H](NC(=O)[C@H](O)[C@@H](O)C(=O)N1CCCC1c1nc2ccccc2s1)c1ccc(Br)cc1` (some centres unmarked) [Compound 160], the IC50 under setting [1] was found to be 0.16 µM and the IC50 under setting [2] is below 0.25 µM. As to `COc1ccccc1N1CCN(C(=O)[C@H](O)[C@@H](O)C(=O)N[C@@H](C)c2ccc(Br)cc2)CC1` [Compound 164], the IC50 under setting [2] lay in the range of 0.25 to 1 µM. In turn, `C[C@H](NC(=O)[C@H](O)[C@@H](O)C(=O)N1CCC(N2C(=O)Cc3ccccc32)CC1)c1ccc(Br)cc1` [Compound 165] returned an IC50 of 1 to 5 µM. Consider `C[C@H](NC(=O)[C@H](O)[C@@H](O)C(=O)N1CCc2c([nH]c3ccccc23)C1)c1ccc(Br)cc1` [Compound 169], for which the IC50 under setting [2] is 0.25 to 1 µM.

Take `C[C@H](NC(=O)[C@H](O)[C@@H](O)C(=O)N1CCCC1c1ccccc1)c1ccc(Br)cc1` (some centres unmarked) [Compound 172]: under setting [2], the IC50 lay within 0.25 to 1 µM. `C[C@H](NC(=O)[C@H](O)[C@@H](O)C(=O)N[C@@H]1c2ccccc2C[C@@H]1O)c1ccc(Br)cc1` [Compound 173]: under setting [2], the IC50 is above 5 µM. Turning to `C[C@H](NC(=O)[C@H](O)[C@@H](O)C(=O)N[C@H]1c2ccccc2C[C@H]1O)c1ccc(Br)cc1` [Compound 174], the IC50 under setting [2] was above 5 µM. Regarding `C[C@H](NC(=O)[C@H](O)[C@@H](O)C(=O)N1Cc2ccccc2C1)c1ccc(Br)cc1` [Compound 175], under setting [2], the IC50 lay within 0.25 to 1 µM. With `C[C@H](NC(=O)[C@H](O)[C@@H](O)C(=O)N(C)CCc1ccccc1)c1ccc(Br)cc1` [Compound 176], under setting [2], the IC50 was 0.25 to 1 µM. For `O=C(NCc1ccc(C(F)(F)F)cc1)[C@H](O)[C@@H](O)C(=O)N1CCc2ccccc2C1` [Compound 180], the IC50 under setting [2] was in the range of 0.25 to 1 µM. With `O=C(NCc1cccc(I)c1)[C@H](O)[C@@H](O)C(=O)N1CCc2ccccc2C1` [Compound 181], the IC50 under setting [2] is above 5 µM. Turning to `O=C(NCc1ccc(Br)cc1)[C@H](O)[C@@H](O)C(=O)N1CCc2ccccc2C1` [Compound 184], under setting [2], the IC50 fell in the range of 0.25 to 1 µM. Same read-out and setting: with `O=C(NCc1cccc(Br)c1)[C@@H](O)[C@H](O)C(=O)N1CCc2ccccc2C1` [Compound 185] the figure was above 5 µM; with `CC(NC(=O)[C@H](O)[C@@H](O)C(=O)N1CCc2ccccc2C1)c1ccc(S(C)(=O)=O)cc1` (some centres unmarked) [Compound 186], above 5 µM; with `C[C@@H](c1ccc(Br)cc1)N(C)C(=O)[C@@H](O)[C@H](O)C(=O)N1CCc2ccccc2C1` [Compound 187], above 5 µM.

With `CN1CCC(N(C)C(=O)[C@@H](O)[C@H](O)C(=O)NCc2ccc(I)cc2)CC1` [Compound 189], under setting [2], the IC50 is above 5 µM. `C[C@H](NC(=O)[C@H](O)[C@@H](O)C(=O)N1CCc2ccccc2C1)c1ccc(-c2cccc(N3CCCC3)c2)cc1` [Compound 196]: the concentration for half-maximal inhibition (IC50) under setting [2] is below 0.25 µM. With `C[C@H](NC(=O)[C@H](O)[C@@H](O)C(=O)N1CCc2ccccc2C1)c1ccc(-c2ccc(O)cc2)cc1` [Compound 200], under setting [2], the IC50 is below 0.25 µM. For the compound `CC(NC(=O)[C@H](O)[C@@H](O)C(=O)N1CCc2ccccc2C1)c1ccc(C(F)(F)F)cc1` (some centres unmarked) [Compound 201], the IC50 under setting [2] is 0.25 to 1 µM. `O=C(NCc1ccc(I)cc1)[C@H](O)[C@@H](O)C(=O)N1CCc2ccccc2C1` [Compound 204]: the IC50 was 0.09 µM under setting [1] and below 0.25 µM under setting [2]. Turning to `C[C@H](NC(=O)[C@H](O)[C@@H](O)C(=O)N(C)C1Cc2ccccc2C1)c1ccc(Br)cc1` [Compound 206], the IC50 under setting [2] fell in the range of 0.25 to 1 µM. As for `COc1cc2c(cc1OC)CN(C(=O)[C@H](O)[C@@H](O)C(=O)N[C@@H](C)c1ccc(Br)cc1)CC2` [Compound 207], the IC50 is 0.096 µM under setting [1] and below 0.25 µM under setting [2]. In the case of `C[C@H](NC(=O)[C@H](O)[C@@H](O)C(=O)N1CCCC1c1cccc(Cl)c1)c1ccc(Br)cc1` (some centres unmarked) [Compound 209], the IC50 under setting [2] was below 0.25 µM.

As for `O=C(NCc1cccc(Br)c1)C(O)C(O)C(=O)N1CCc2ccccc2C1` (centres unmarked) [Compound 211], the IC50 under setting [2] was above 5 µM. With `O=C(NCc1cccc(I)c1)C(O)C(O)C(=O)N1CCc2ccccc2C1` (centres unmarked) [Compound 212], the IC50 under setting [2] was above 5 µM.

For the compound `C[C@H](NC(=O)C(O)C(O)C(=O)N1CCN(c2ccc(O)cc2)CC1)c1ccc(Br)cc1` (some centres unmarked) [Compound 215], the IC50 under setting [2] lay within 1 to 5 µM. Same read-out and setting: as for `C[C@H](NC(=O)C(O)C(O)C(=O)N1Cc2ccccc2C1)c1ccc(O)cc1` (some centres unmarked) [Compound 216], the figure is below 0.25 µM. In the case of `C[C@H](NC(=O)C(O)C(O)C(=O)N1Cc2ccccc2C1)c1cccc(O)c1` (some centres unmarked) [Compound 217], the IC50 under setting [2] was 1 to 5 µM. Take `C[C@H](NC(=O)C(O)C(O)C(=O)N1CCc2ccccc2C1)c1cccc(Br)c1` (some centres unmarked) [Compound 218]: the IC50 under setting [2] was above 5 µM. As to `C[C@H](NC(=O)C(O)C(O)C(=O)N1CCc2ccccc2C1)c1cccc(I)c1` (some centres unmarked) [Compound 219], the IC50 under setting [2] fell in the range of 1 to 5 µM. With `C[C@H](NC(=O)C(O)C(O)C(=O)N1CCc2ccccc2C1)c1ccc(C(F)(F)F)cc1F` (some centres unmarked) [Compound 220], under setting [2], the IC50 was above 5 µM.

For the compound `O=C(NCCCCCn1c(C(F)(F)F)nc2ccccc21)C(O)C(O)C(=O)N1CCc2ccccc2C1` (centres unmarked) [Compound 221], under setting [2], the IC50 is above 5 µM.
